Ten molecules from patent US12459951B2, “Compounds that interact with RAS superfamily proteins for treatment of cancers, inflammatory diseases, rasopathies, and fibrotic disease” (SHY Therapeutics, LLC, priority 2022, dated 2025) can be followed below.

For one assay, the system named is IL6. Nature of the assay: IL-6 Quantification Assay (ELISA), LPS-stimulated RAW 264.7. The conditions noted are these: Mus musculus, RAW264.7; read-out: IL-6: % inh. On the set-up: inhibition: dose or concentration left out as unconfirmed. The class given is cell-based. A general note: In an ELISA, binding on a coated surface is turned into a signal by an enzyme label.

For a further assay, the system named is KRas wild type. Nature of the assay: Ras GTP Binding Domain Inhibition Assay (Ras Superfamily Assay). The conditions noted are these: for KRas wild type + SOS: % inh.: with SOS; for KRas wild type: % inh.: without SOS. Put shortly: (§1)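 Ni-plate capture of His-tagged protein (10-30 μg/mL, o/n 4° C); cpd 20 μM or dilution series, 1% DMSO, 3 h RT ± Sos 556-1049 last h; 100 nM Cy-labelled GTP 45 min RT; 3× wash; fluorescence read.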

The next assay relates to KRas G12D mutant. The assay is described as above. To be noted: for KRas G12D mutant + SOS: % inh.: with SOS; for KRas G12D mutant: % inh.: without SOS. The procedure, abridged:
as §1

The target in a further assay is T1, Rac-1 (Homo sapiens, UniProt P63000).
T1 construct: made in house
The assay is described as above. The conditions noted are these: read-out: Rac-1: % inh. The procedure, abridged:
as §1

In assay [1] the test system is Smad2/Smad3 phosphorylation. Nature of the assay: Phospho-Smad2/3 Inhibition Assay (western blot), Panc-1. The assay is classed as cell-based, human. To be noted: at 10 μM, Panc-1 pancreatic cancer cell line; starred symbols = activation. Put shortly:
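Western blotting of lysates (15-50 μg protein) read phosphorylation of Smad2 Ser465/467 and Smad3 Ser423/425. Before lysis, Panc-1 cells got 1 h of 10 ng/ml TGF-b1 following 3 h compound exposure at 37° C (10 μM final, or serial dilutions for IC50, 0.3% DMSO) after overnight 0.5% FBS starvation.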
(In general: Immunoblotting shows a protein as a band on a membrane.)

Structures are written as SMILES.

As to `Cc1c(-c2ccn(C)n2)cn2nc(-c3nccn3C)nc(N)c12` [Compound 211, 5-Methyl-2-(1-methyl-1H-imidazol-2-yl)-6-(1-methyl-1H-pyrazol-3-yl)pyrrolo[2,1-f][1,2,4]triazin-4-amine], the inhibition with IL6 lay in the range of 50 to 74%. Also, in the assay on KRas wild type (at 20 μM), the “KRas wild type + SOS: % inh.” value is listed as “D (D = 76-100% inhibition)” and the “KRas wild type: % inh.” value is recorded as “C (C = 50-75% inhibition)”. In the assay with KRas G12D mutant (at 20 μM), the “KRas G12D mutant + SOS: % inh.” value is listed as “C (C = 50-75% inhibition)” and the “KRas G12D mutant: % inh.” value is “C (C = 50-75% inhibition)”. For the same molecule, the inhibition at 20 µM at Rac-1 lay in the range of 50 to 75%. In assay [1], the “% inh of Smad2/3 phosphorylation in Panc-1” value (shortened to “% inh … in Panc-1”) is reported as “D (D = 76-100% inhibition)”.
With `CO[C@H]1C[C@H](Nc2nc(-c3nccn3C)nn3cc(-c4ccncc4)c(-c4ccccc4)c23)C1` [Compound 199, N-((1r,3r)-3-Methoxycyclobutyl)-2-(1-methyl-1H-imidazol-2-yl)-5-phenyl-6-(pyridin-4-yl)pyrrolo[2,1-f][1,2,4]triazin-4-amine], in the assay on IL6, the inhibition is 75 to 100%. Moreover, in the assay with KRas wild type (at 20 μM), the “KRas wild type + SOS: % inh.” value is “B (B = 26-49% inhibition)” and the “KRas wild type: % inh.” value is given as “A (A = 1-25% inhibition)”. Also, in the assay on KRas G12D mutant (at 20 μM), the “KRas G12D mutant + SOS: % inh.” value is “B (B = 26-49% inhibition)” and the “KRas G12D mutant: % inh.” value was “B (B = 26-49% inhibition)”. In addition, the inhibition at 20 µM on Rac-1 was 26 to 49%. In addition, the “% inh … in Panc-1” value in assay [1] is given as “B (B = 26-45% inhibition)”.
With `COC1CCCN(c2nc(-c3ccccn3)nn3cc(-c4ccn(C(C)C)n4)c(C)c23)C1` (racemic) [Compound 12, rac 6-(1-Isopropyl-1H-pyrazol-3-yl)-4-(3-methoxypiperidin-1-yl)-5-methyl-2-(pyridin-2-yl)pyrrolo[2,1-f][1,2,4]triazine], in the assay on IL6, the inhibition lay within 25 to 49%. For the same molecule, in the assay on KRas wild type (20 μM compound), the “KRas wild type + SOS: % inh.” value is 0 (0 = 0% inhibition) and the “KRas wild type: % inh.” value was 0 (0 = 0% inhibition). Besides, in the assay on KRas G12D mutant (20 μM compound), the “KRas G12D mutant + SOS: % inh.” value is 0 (0 = 0% inhibition) and the “KRas G12D mutant: % inh.” value is on record as “A (A = 1-25% inhibition)”. The inhibition at 20 µM on Rac-1 came to 0%. In assay [1], the “% inh … in Panc-1” value is on record as 0 (0 = 0% inhibition).
Turning to `CO[C@H]1C[C@H](Nc2nc(-c3nccn3C)nn3cc(-c4cccnc4)c(-c4ccccc4)c23)C1` [Compound 192, N-((1r,3r)-3-Methoxycyclobutyl)-2-(1-methyl-1H-imidazol-2-yl)-5-phenyl-6-(pyridin-3-yl)pyrrolo[2,1-f][1,2,4]triazin-4-amine], the inhibition with IL6 was 75 to 100%. For the same molecule, in the assay on KRas wild type (at 20 μM), the “KRas wild type + SOS: % inh.” value is “B (B = 26-49% inhibition)” and the “KRas wild type: % inh.” value is on record as “B (B = 26-49% inhibition)”. In the assay on KRas G12D mutant (at 20 μM), the “KRas G12D mutant + SOS: % inh.” value is given as “B (B = 26-49% inhibition)” and the “KRas G12D mutant: % inh.” value is listed as “B (B = 26-49% inhibition)”. In addition, the inhibition at 20 µM on Rac-1 lay in the range of 1 to 25%. In addition, the “% inh … in Panc-1” value in assay [1] is recorded as “A* (A* = 1-25% activation)”.
On to `CO[C@@H]1C[C@H]1Nc1nc(-c2nccn2C)nn2cc(-c3cccnc3)c(-c3ccccc3)c12` (racemic) [Compound 190, N-((1R,2R)-2-Methoxycyclopropyl)-2-(1-methyl-1H-imidazol-2-yl)-5-phenyl-6-(pyridin-3-yl)pyrrolo[2,1-f][1,2,4]triazin-4-amine], for which, in the assay on IL6, the inhibition lay within 50 to 74%. In the assay on KRas wild type (at 20 μM), the “KRas wild type + SOS: % inh.” value is on record as “B (B = 26-49% inhibition)” and the “KRas wild type: % inh.” value is “A (A = 1-25% inhibition)”. Also, in the assay on KRas G12D mutant (at 20 μM), the “KRas G12D mutant + SOS: % inh.” value was “B (B = 26-49% inhibition)” and the “KRas G12D mutant: % inh.” value was “B (B = 26-49% inhibition)”. On Rac-1, the inhibition at 20 µM is 26 to 49%. Also, in assay [1], the “% inh … in Panc-1” value is given as “A (A = 1-25% inhibition)”.
Turning to `COCC1CCN(c2nc(-c3ccccn3)nn3cc(-c4ccn(C(C)C)n4)c(C)c23)C1` (racemic) [Compound 10, rac 6-(1-Isopropyl-1H-pyrazol-3-yl)-4-(3-(methoxymethyl)pyrrolidin-1-yl)-5-methyl-2-(pyridin-2-yl)pyrrolo[2,1-f][1,2,4]triazine], the inhibition in the assay with IL6 was in the range of 25 to 49%. Besides, in the assay on KRas wild type (20 μM compound), the “KRas wild type + SOS: % inh.” value is 0 (0 = 0% inhibition) and the “KRas wild type: % inh.” value is given as “A (A = 1-25% inhibition)”. In the assay on KRas G12D mutant (20 μM compound), the “KRas G12D mutant + SOS: % inh.” value is recorded as 0 (0 = 0% inhibition) and the “KRas G12D mutant: % inh.” value was “A (A = 1-25% inhibition)”. In addition, the inhibition at 20 µM at Rac-1 lay within 1 to 25%. The “% inh … in Panc-1” value in assay [1] was “A (A = 1-25% inhibition)”.
With `COCCNc1nc(-c2nccn2C)nn2cc(-c3ccncc3)c(-c3ccccc3)c12` [Compound 202, N-(2-Methoxyethyl)-2-(1-methyl-1H-imidazol-2-yl)-5-phenyl-6-(pyridin-4-yl)pyrrolo[2,1-f][1,2,4]triazin-4-amine], the inhibition with IL6 lay in the range of 50 to 74%. Besides, in the assay with KRas wild type (at 20 μM), the “KRas wild type + SOS: % inh.” value was “C (C = 50-75% inhibition)” and the “KRas wild type: % inh.” value is “B (B = 26-49% inhibition)”. Further, in the assay with KRas G12D mutant (at 20 μM), the “KRas G12D mutant + SOS: % inh.” value is on record as “C (C = 50-75% inhibition)” and the “KRas G12D mutant: % inh.” value is on record as “C (C = 50-75% inhibition)”. Besides, on Rac-1, the inhibition at 20 µM lay within 26 to 49%. Moreover, the “% inh … in Panc-1” value in assay [1] is recorded as “A (A = 1-25% inhibition)”.
For the molecule `Cc1c(-c2ccn(C)n2)cn2nc(-c3nccn3C)nc(Nc3cc(C(C)(C)O)ccn3)c12` [Compound 240, 2-(2-((5-Methyl-2-(1-methyl-1H-imidazol-2-yl)-6-(1-methyl-1H-pyrazol-3-yl)pyrrolo[2,1-f][1,2,4]triazin-4-yl)amino)pyridin-4-yl)propan-2-ol], in the assay on IL6, the inhibition is 50 to 74%. Further, in the assay on KRas wild type (at 20 μM), the “KRas wild type + SOS: % inh.” value is recorded as “D (D = 76-100% inhibition)” and the “KRas wild type: % inh.” value is given as “D (D = 76-100% inhibition)”. In addition, in the assay on KRas G12D mutant (at 20 μM), the “KRas G12D mutant + SOS: % inh.” value is “D (D = 76-100% inhibition)” and the “KRas G12D mutant: % inh.” value is given as “D (D = 76-100% inhibition)”. The inhibition at 20 µM at Rac-1 fell in the range of 76 to 100%. The “% inh … in Panc-1” value in assay [1] was 0 (0 = 0% inhibition).
`Cc1c(-c2ccn(C)n2)cn2nc(-c3nccn3C)nc(Nc3ccc(-n4ccnc4)cn3)c12` [Compound 242, N-(5-(1H-Imidazol-1-yl)pyridin-2-yl)-5-methyl-2-(1-methyl-1H-imidazol-2-yl)-6-(1-methyl-1H-pyrazol-3-yl)pyrrolo[2,1-f][1,2,4]triazin-4-amine]: in the assay with IL6, the inhibition lay in the range of 25 to 49%. In addition, in the assay with KRas wild type (at 20 μM), the “KRas wild type + SOS: % inh.” value is recorded as 0 (0 = 0% inhibition) and the “KRas wild type: % inh.” value was “A (A = 1-25% inhibition)”. In addition, in the assay with KRas G12D mutant (at 20 μM), the “KRas G12D mutant + SOS: % inh.” value is listed as “A (A = 1-25% inhibition)” and the “KRas G12D mutant: % inh.” value was “B (B = 26-49% inhibition)”. The inhibition at 20 µM on Rac-1 lay in the range of 1 to 25%. In addition, the “% inh … in Panc-1” value in assay [1] is on record as “A (A = 1-25% inhibition)”.
For `Cc1c(-c2ccn(C)n2)cn2nc(-c3nccn3C)nc(Nc3ccc(C(C)(C)O)cn3)c12` [Compound 241, 2-(6-((5-Methyl-2-(1-methyl-1H-imidazol-2-yl)-6-(1-methyl-1H-pyrazol-3-yl)pyrrolo[2,1-f][1,2,4]triazin-4-yl)amino)pyridin-3-yl)propan-2-ol], the inhibition in the assay with IL6 is 25 to 49%. Besides, in the assay on KRas wild type (at 20 μM), the “KRas wild type + SOS: % inh.” value is recorded as “D (D = 76-100% inhibition)” and the “KRas wild type: % inh.” value is on record as “D (D = 76-100% inhibition)”. In addition, in the assay on KRas G12D mutant (at 20 μM), the “KRas G12D mutant + SOS: % inh.” value was “D (D = 76-100% inhibition)” and the “KRas G12D mutant: % inh.” value was “D (D = 76-100% inhibition)”. Besides, the inhibition at 20 µM on Rac-1 lay within 76 to 100%. In assay [1], the “% inh … in Panc-1” value is given as “C* (C* = 46-75% activation)”.
